From the supplement of paper PMC5579334
± gives the standard deviation of the averaged measurements.

How the values were obtained:
S1507-2 [1] = assay: % inhibition of CellTiter-Glo viability at highest tested concentration (72 h), relative to DMSO and benzethonium chloride controls; higher = more inhibition
In short: (§1)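 After seeding 750–1000 cells per well of MPNST cell lines or primary human Schwann cells into 384-well plates preprinted with each compound at five concentrations in 10-fold steps, plates were kept 72 h at 37 °C, 5% CO2. Viability was read as CellTiter-Glo ATP luminescence relative to vehicle and positive-control wells, with duplicates averaged where present. The data were fitted with four-parameter logistic models. Drug sensitivity score and relative IC50, censored at the top concentration, derive from the fits, and percent inhibition refers to the top concentration.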

[2] = test system: HSC1 (primary human Schwann cells); assay: as above
In short: as §1

[3] = test system: HSC2 (primary human Schwann cells); assay: as above
In short: as §1

S462 [4] = assay: as above
In short: as §1

HS-Sch-2 [5] = assay: as above
In short: as §1

HS-PSS [6] = assay: as above
In short: as §1

STS26T [7] = assay: as above
In short: as §1

YST-1 [8] = assay: as above
In short: as §1

ST8814 [9] = assay: as above
In short: as §1

S1507-2 [10] = assay: drug sensitivity score (DSS, CellTox-Green cytotoxicity, 72 h) (DSS (dimensionless)); higher = more cytotoxic; extreme values may be limits of the assay
In short: (§2)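 For 72 h at 37 °C, MPNST cell lines and primary human Schwann cells were exposed in 384-well plates to five 10-fold compound dilutions. CellTox-Green, added before seeding at a final 1:1000 dilution, gave fluorescence from DNA released by disrupted cells. Signals were scaled to vehicle and positive-control wells, cultures failing plate quality control were left out, and four-parameter logistic fits were applied. Relative IC50 and drug sensitivity score were derived from the fits, with IC50 censored at the top concentration.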

[11] = test system: HSC1 (primary human Schwann cells); assay: as above
In short: as §2

[12] = test system: HSC2 (primary human Schwann cells); assay: as above
In short: as §2

HS-PSS [13] = assay: as above
In short: as §2

STS26T [14] = assay: as above
In short: as §2

ST8814 [15] = assay: as above
In short: as §2

S1507-2 [16] = assay: drug sensitivity score (DSS, CellTiter-Glo viability, 72 h) (DSS (dimensionless)); higher = more sensitive; extreme values may be limits of the assay
In short: as §1

[17] = test system: HSC1 (primary human Schwann cells); assay: as above
In short: as §1

[18] = test system: HSC2 (primary human Schwann cells); assay: as above
In short: as §1

S462 [19] = assay: as above
In short: as §1

HS-Sch-2 [20] = assay: as above
In short: as §1

HS-PSS [21] = assay: as above
In short: as §1

STS26T [22] = assay: as above
In short: as §1

YST-1 [23] = assay: as above
In short: as §1

ST8814 [24] = assay: as above
In short: as §1

CCNC(=O)CCC/C=C\C[C@@H]1[C@@H](/C=C/[C@@H](O)CCc2ccccc2)[C@H](O)C[C@@H]1O [Bimatoprost] (max concentration tested 5500 nM)
% inhibition (S1507-2 [1]): 0.42 ± 0.85%
% inhibition [2]: 2.26%
% inhibition [3]: 9.6%
% inhibition (S462 [4]): 9.55 ± 12%
% inhibition (HS-Sch-2 [5]): -3.66%
% inhibition (HS-PSS [6]): -11.6%
% inhibition (STS26T [7]): 7.31%
% inhibition (YST-1 [8]): 7.41%
% inhibition (ST8814 [9]): 2.33%
drug sensitivity score (S1507-2 [10]): 0
drug sensitivity score [11]: 0
drug sensitivity score [12]: 0
drug sensitivity score (HS-PSS [13]): 0.89
drug sensitivity score (STS26T [14]): 0
drug sensitivity score (ST8814 [15]): 0
drug sensitivity score (S1507-2 [16]): 0.00145 ± 0.0021
drug sensitivity score [17]: 0
drug sensitivity score [18]: 0
drug sensitivity score (S462 [19]): 0.502 ± 0.71
drug sensitivity score (HS-Sch-2 [20]): 0.89
drug sensitivity score (HS-PSS [21]): 0.89
drug sensitivity score (STS26T [22]): 0
drug sensitivity score (YST-1 [23]): 0
drug sensitivity score (ST8814 [24]): 0

CC(C)(C)NC(=O)[C@H]1CC[C@H]2[C@@H]3CC[C@H]4NC(=O)C=C[C@]4(C)[C@H]3CC[C@]12C [Finasteride] (max concentration tested 10000 nM)
% inhibition (S1507-2 [1]): -1.69 ± 4.2%
% inhibition [2]: 0.189%
% inhibition [3]: 0.769%
% inhibition (S462 [4]): 2.86 ± 8.6%
% inhibition (HS-Sch-2 [5]): 8.19%
% inhibition (HS-PSS [6]): 4.42%
% inhibition (STS26T [7]): 9.35%
% inhibition (YST-1 [8]): 2.29%
% inhibition (ST8814 [9]): 6.23%
drug sensitivity score (S1507-2 [10]): 0.774 ± 1.1
drug sensitivity score [11]: 0
drug sensitivity score [12]: 0
drug sensitivity score (HS-PSS [13]): 0
drug sensitivity score (STS26T [14]): 0
drug sensitivity score (ST8814 [15]): 0
drug sensitivity score (S1507-2 [16]): 0
drug sensitivity score [17]: 0
drug sensitivity score [18]: 0
drug sensitivity score (S462 [19]): 0
drug sensitivity score (HS-Sch-2 [20]): 0
drug sensitivity score (HS-PSS [21]): 0
drug sensitivity score (STS26T [22]): 0
drug sensitivity score (YST-1 [23]): 0
drug sensitivity score (ST8814 [24]): 0

CN(N=O)C(=O)N[C@@H]1[C@@H](O)[C@H](O)[C@@H](CO)O[C@@H]1O [Streptozocin] (max concentration tested 10000 nM)
% inhibition (S1507-2 [1]): -6.55 ± 6.7%
% inhibition [2]: -2.68%
% inhibition [3]: -3.21%
% inhibition (S462 [4]): -6.63 ± 1.8%
% inhibition (HS-Sch-2 [5]): 15.2%
% inhibition (HS-PSS [6]): 7.67%
% inhibition (STS26T [7]): -0.477%
% inhibition (YST-1 [8]): 9.13%
% inhibition (ST8814 [9]): 6.38%
drug sensitivity score (S1507-2 [10]): 0.108 ± 0.15
drug sensitivity score [11]: 0
drug sensitivity score [12]: 0
drug sensitivity score (HS-PSS [13]): 0
drug sensitivity score (STS26T [14]): 0
drug sensitivity score (ST8814 [15]): 0
drug sensitivity score (S1507-2 [16]): 0
drug sensitivity score [17]: 0
drug sensitivity score [18]: 0
drug sensitivity score (S462 [19]): 0
drug sensitivity score (HS-Sch-2 [20]): 0.37
drug sensitivity score (HS-PSS [21]): 1.36
drug sensitivity score (STS26T [22]): 0
drug sensitivity score (YST-1 [23]): 0.32
drug sensitivity score (ST8814 [24]): 0

CS(=O)(=O)OCCCCOS(C)(=O)=O [Busulfan] (max concentration tested 100000 nM)
% inhibition (S1507-2 [1]): -7.23 ± 18%
% inhibition [2]: 8.68%
% inhibition [3]: -3.16%
% inhibition (S462 [4]): -16.5 ± 19%
% inhibition (HS-Sch-2 [5]): 17.2%
% inhibition (HS-PSS [6]): 0.44%
% inhibition (STS26T [7]): 3.36%
% inhibition (YST-1 [8]): 22.8%
% inhibition (ST8814 [9]): 0.917%
drug sensitivity score (S1507-2 [10]): 0
drug sensitivity score [11]: 0
drug sensitivity score [12]: 0
drug sensitivity score (HS-PSS [13]): 0
drug sensitivity score (STS26T [14]): 0
drug sensitivity score (ST8814 [15]): 0
drug sensitivity score (S1507-2 [16]): 0
drug sensitivity score [17]: 0
drug sensitivity score [18]: 0
drug sensitivity score (S462 [19]): 0
drug sensitivity score (HS-Sch-2 [20]): 0.72
drug sensitivity score (HS-PSS [21]): 0
drug sensitivity score (STS26T [22]): 0
drug sensitivity score (YST-1 [23]): 2.32
drug sensitivity score (ST8814 [24]): 0

Oc1ncnc2[nH]ncc12 [Allopurinol] (max concentration tested 10000 nM)
% inhibition (S1507-2 [1]): -4.6 ± 1.9%
% inhibition [2]: 5.09%
% inhibition [3]: 1.63%
% inhibition (S462 [4]): -1.67 ± 0.31%
% inhibition (HS-Sch-2 [5]): 8.43%
% inhibition (HS-PSS [6]): 6.72%
% inhibition (STS26T [7]): 6.65%
% inhibition (YST-1 [8]): 8.22%
% inhibition (ST8814 [9]): -3.79%
drug sensitivity score (S1507-2 [10]): 0
drug sensitivity score [11]: 0
drug sensitivity score [12]: 0
drug sensitivity score (HS-PSS [13]): 0
drug sensitivity score (STS26T [14]): 0
drug sensitivity score (ST8814 [15]): 0
drug sensitivity score (S1507-2 [16]): 0
drug sensitivity score [17]: 0
drug sensitivity score [18]: 0
drug sensitivity score (S462 [19]): 0
drug sensitivity score (HS-Sch-2 [20]): 0
drug sensitivity score (HS-PSS [21]): 0
drug sensitivity score (STS26T [22]): 0
drug sensitivity score (YST-1 [23]): 0
drug sensitivity score (ST8814 [24]): 0

CC[C@]1(O)C[C@H]2CN(CCc3c([nH]c4ccccc34)[C@@](C(=O)OC)(c3cc4c(cc3OC)N(C=O)[C@H]3[C@@](O)(C(=O)OC)[C@H](OC(C)=O)[C@]5(CC)C=CCN6CC[C@]43[C@@H]65)C2)C1 [Vincristine] (max concentration tested 1000 nM)
% inhibition (S1507-2 [1]): 79.8 ± 1.9%
% inhibition [2]: 75.5%
% inhibition [3]: 90.7%
% inhibition (S462 [4]): 95.45 ± 0.25%
% inhibition (HS-Sch-2 [5]): 94%
% inhibition (HS-PSS [6]): 67.8%
% inhibition (STS26T [7]): 94.5%
% inhibition (YST-1 [8]): 81.9%
% inhibition (ST8814 [9]): 90.3%
drug sensitivity score (S1507-2 [10]): 13 ± 3
drug sensitivity score [11]: 8.67
drug sensitivity score [12]: 12.1
drug sensitivity score (HS-PSS [13]): 0.55
drug sensitivity score (STS26T [14]): 36
drug sensitivity score (ST8814 [15]): 24.3
drug sensitivity score (S1507-2 [16]): 21.1 ± 0.68
drug sensitivity score [17]: 17.9
drug sensitivity score [18]: 20.9
drug sensitivity score (S462 [19]): 28.88 ± 0.23
drug sensitivity score (HS-Sch-2 [20]): 30.5
drug sensitivity score (HS-PSS [21]): 17
drug sensitivity score (STS26T [22]): 32.4
drug sensitivity score (YST-1 [23]): 26.7
drug sensitivity score (ST8814 [24]): 23.6

O=C1CN2Cc3c(ccc(Cl)c3Cl)N=C2N1 [Anagrelide] (max concentration tested 10000 nM)
% inhibition (S1507-2 [1]): -1.32 ± 1.6%
% inhibition [2]: 17.3%
% inhibition [3]: 51.1%
% inhibition (S462 [4]): -5.96 ± 0.63%
% inhibition (HS-Sch-2 [5]): 38.7%
% inhibition (HS-PSS [6]): 4.14%
% inhibition (STS26T [7]): 1.1%
% inhibition (YST-1 [8]): 2.83%
% inhibition (ST8814 [9]): 17.3%
drug sensitivity score (S1507-2 [10]): 0
drug sensitivity score [11]: 0
drug sensitivity score [12]: 0.367
drug sensitivity score (HS-PSS [13]): 0
drug sensitivity score (STS26T [14]): 0
drug sensitivity score (ST8814 [15]): 0
drug sensitivity score (S1507-2 [16]): 0
drug sensitivity score [17]: 1.41
drug sensitivity score [18]: 11.1
drug sensitivity score (S462 [19]): 0
drug sensitivity score (HS-Sch-2 [20]): 8.23
drug sensitivity score (HS-PSS [21]): 0
drug sensitivity score (STS26T [22]): 0
drug sensitivity score (YST-1 [23]): 0
drug sensitivity score (ST8814 [24]): 0.934
